# Data taken from patent publication US8399420B2, “Azacytidine analogues and uses thereof” (Mount Sanai School of Medicine, priority 2007, dated 2013).
# Key:
# [1] = tested on: MT-3/ADR resistant breast carcinoma; assay: Cytotoxicity, MTT assay, adriablastin resistant cell line MT-3/ADR; type: cell-based; settings: concentration range tested up to 100 μM
# Protocol: The cells were seeded in 96-well plates with 5×10^3 cells per well, in RPMI 1640 medium with 2 mM glutamine and 10% FBS. The cells were incubated for 24 hours. The test compounds were dissolved in DMSO and further diluted in medium just prior to use. 6 wells were used per test concentration. The cells were incubated with test compound for 24 hours. 20 μl of freshly prepared MTT solution was added to each well and incubated for 4 hours.
# [2] = tested on: Hela mutant cervix carcinoma cells; assay: Cytotoxic activity with or without nucleoside transport inhibitor dipyridamole, MTT assay; type: cell-based; settings: dipyridamole 10 μM
# Protocol: Dipyridamole was used as an inhibitor of the equilibrative nucleoside transporters hENT1 and hENT2. The cells were seeded in 96-well plates with 5×10^3 cells per well, in RPMI 1640 medium with 2 mM glutamine and 10% FBS. The cells were pre-incubated for 24 hours. Dipyridamole (10 μM) was added to the cells 30 minutes prior to the addition of the test compounds. The test compounds were dissolved in DMSO and further diluted in medium just prior to use. 6 wells were used per test concentration. The cells were incubated with test compound for 72 hours. 20 μl of freshly prepared MTT solution was added to each well and incubated for 4 hours.
structure (smiles),measurement,setting,value
"Nc1ncn([C@@H]2O[C@H](CO)[C@@H](O)[C@H]2O)c(=O)n1 [Aza-C, 5-azacytidine]",activity in the MT-3/ADR resistant cell line,[1],No activity was observed
same,reduction of activity by addition of dipyridamole,[2],3 fold
